Test results reported in ChEMBL document CHEMBL1201862, “PubChem BioAssay data set” (2004).
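A five-concentration, 48-hour dose response in 96-well plates underlies each endpoint, interpolated linearly between surrounding concentrations. The concentration for 50% growth inhibition is given as GI50.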 Activity calls are given as the source filed them. Cut-off read from the data, not from the text of the source: active = GI50 up to about 1.1 µM and inactive = higher.

Columns and labels:
Assay in all cases: inhibition of tumour cell growth, NCI panel, 48 h
[1] = test system: RPMI-8226
[2] = test system: IGROV-1
[3] = test system: SK-MEL-5
[4] = test system: MDA-N
[5] = test system: NCI-H522
[6] = test system: MOLT-4
[7] = test system: SK-OV-3
[8] = test system: M14
[9] = test system: HOP-92
[10] = test system: HCC 2998
[11] = test system: NCI-H226
[12] = test system: KM12
[13] = test system: CAKI-1
[14] = test system: T47D
[15] = test system: CCRF-CEM
[16] = test system: TK-10
[17] = test system: UACC-257
[18] = test system: HCT-15
[19] = test system: OVCAR-5
[20] = test system: SF-268

Row | SMILES | GI50 [1] | GI50 [2] | GI50 [3] | GI50 [4] | GI50 [5] | GI50 [6] | GI50 [7] | GI50 [8] | GI50 [9] | GI50 [10] | GI50 [11] | GI50 [12] | GI50 [13] | GI50 [14] | GI50 [15] | GI50 [16] | GI50 [17] | GI50 [18] | GI50 [19] | GI50 [20]
1 | COc1ccc(C2C3=C(COC3=O)OC(C)(C)Oc3cc4c(cc32)OCO4)cc1OC (stereo not given) | 41.6 µM (inactive) | 36.9 µM (inactive) | 30.3 µM (inactive) | 19.8 µM (inactive) | 32.4 µM (inactive) | 34.8 µM (inactive) | 50.5 µM (inactive) | 28.2 µM (inactive) | 37.5 µM (inactive) | 78 µM (inactive) | > 78.7 µM (inactive) | 24 µM (inactive) | 43.6 µM (inactive) | 37.5 µM (inactive) | 37.1 µM (inactive) | 50.1 µM (inactive) | 39.4 µM (inactive) | 38.5 µM | > 77.8 µM (inactive) | 21.1 µM (inactive)
2 | COC(=O)C(C)(NC(=O)C(CC(=O)OC(C)(C)C)NC(=O)OC(C)(C)C)c1ccccc1 (stereo not given) | 72.8 µM (inactive) | > 100 µM (inactive) | 68.4 µM (inactive) | > 100 µM (inactive) | > 100 µM (inactive) | > 100 µM (inactive) | > 100 µM (inactive) | > 100 µM (inactive) | 63 µM (inactive) | > 100 µM (inactive) | > 100 µM (inactive) | > 100 µM (inactive) | > 100 µM (inactive) | 35.4 µM (inactive) | > 100 µM (inactive) | > 100 µM (inactive) | > 100 µM (inactive) | > 100 µM | > 100 µM (inactive) | 7.19 µM (inactive)
3 | CC(C)(C)OC(=O)CCCCCNC(=O)CCCCCNC(=O)CCC(CN(CC(=O)OCc1ccccc1)CC(=O)OCc1ccccc1)N(CC(=O)OCc1ccccc1)CC(=O)OCc1ccccc1 (stereo not given) | 11.8 µM (inactive) | > 100 µM (inactive) | > 100 µM (inactive) | > 100 µM (inactive) | > 100 µM (inactive) | 20.1 µM (inactive) | > 100 µM (inactive) | > 100 µM (inactive) | 32.9 µM (inactive) | > 100 µM (inactive) | > 100 µM (inactive) | > 100 µM (inactive) | 43.8 µM (inactive) | > 100 µM (inactive) | 31.4 µM (inactive) | > 100 µM (inactive) | > 100 µM (inactive) | > 100 µM | > 100 µM (inactive) | > 100 µM (inactive)
4 | N/N=C(/CC(O)(C(F)(F)F)C(F)(F)F)c1ccccc1 | > 10 µM (inactive) | > 10 µM (inactive) | > 10 µM (inactive) | > 10 µM (inactive) | > 10 µM (inactive) | > 10 µM (inactive) | > 10 µM (inactive) | > 10 µM (inactive) | > 10 µM (inactive) | > 10 µM (inactive) | > 10 µM (inactive) | > 10 µM (inactive) | > 10 µM (inactive) | > 10 µM (inactive) | > 10 µM (inactive) | > 10 µM (inactive) | > 10 µM (inactive) | > 10 µM | > 10 µM (inactive) | > 10 µM (inactive)
5 | C1=C2SSC3=CC=C(SSc4ccc(s4)SSC4=CC=C(SSC(=C1)S2)S4)S3 | > 100 µM (inactive) | > 100 µM (inactive) | > 100 µM (inactive) | > 100 µM (inactive) | > 100 µM (inactive) | > 100 µM (inactive) | > 100 µM (inactive) | > 100 µM (inactive) | > 100 µM (inactive) | > 100 µM (inactive) | > 100 µM (inactive) | > 100 µM (inactive) | > 100 µM (inactive) | > 100 µM (inactive) | > 100 µM (inactive) | > 100 µM (inactive) | > 100 µM (inactive) | > 100 µM | > 100 µM (inactive) | > 100 µM (inactive)
6 | Clc1ccc(/C=N/c2ccc(Oc3ccc(Cl)cc3)c(Cl)c2)cc1 | 28.4 µM (inactive) | 38.5 µM (inactive) | 22.3 µM (inactive) | 19.1 µM (inactive) | 14.3 µM (inactive) | 25.5 µM (inactive) | 27 µM (inactive) | 21.1 µM (inactive) | 19.4 µM (inactive) | 21.5 µM (inactive) | 35.3 µM (inactive) | 24.8 µM (inactive) | 6.41 µM (inactive) | 19.5 µM (inactive) | 15.8 µM (inactive) | 50.7 µM (inactive) | 30.9 µM (inactive) | 21.8 µM | > 100 µM (inactive) | 17.5 µM (inactive)
7 | c1ccc([I+]c2ccccc2)cc1 | > 100 µM (inactive) | > 100 µM (inactive) | > 100 µM (inactive) | > 100 µM (inactive) | > 100 µM (inactive) | > 100 µM (inactive) | > 100 µM (inactive) | > 100 µM (inactive) | 70 µM (inactive) | > 100 µM (inactive) | > 100 µM (inactive) | > 100 µM (inactive) | > 100 µM (inactive) | > 100 µM (inactive) | > 100 µM (inactive) | > 100 µM (inactive) | > 100 µM (inactive) | > 100 µM | > 100 µM (inactive) | > 100 µM (inactive)
8 | COc1cccc(N2C(=O)/C(=C\c3ccccc3)SC2c2cc(OC)c(OC)c(OC)c2)c1 (stereo not given) | 32.1 µM (inactive) | 31.3 µM (inactive) | 42.9 µM (inactive) | 17.6 µM (inactive) | 22.2 µM (inactive) | 27.5 µM (inactive) | 35.6 µM (inactive) | 40.3 µM (inactive) | 27.7 µM (inactive) | 32.3 µM (inactive) | > 100 µM (inactive) | 36.5 µM (inactive) | 70 µM (inactive) | 17.4 µM (inactive) | 37.8 µM (inactive) | > 100 µM (inactive) | > 100 µM (inactive) | 44.3 µM | > 100 µM (inactive) | 41.4 µM (inactive)
9 | O=c1c(F)cn2c(=O)n1CCCCCCCn1c(=O)c(F)cn(c1=O)CCCCCCC2 | > 100 µM (inactive) | > 100 µM (inactive) | 39.9 µM (inactive) | > 100 µM (inactive) | > 100 µM (inactive) | > 100 µM (inactive) | > 100 µM (inactive) | 36.1 µM (inactive) | 57.7 µM (inactive) | > 100 µM (inactive) | 54.5 µM (inactive) | 73.1 µM (inactive) | 78.3 µM (inactive) | > 100 µM (inactive) | 76 µM (inactive) | 90.2 µM (inactive) | 36.4 µM (inactive) | > 100 µM | > 100 µM (inactive) | 0.59 µM (active)
10 | CC(=O)OCC1=C(C)C[C@H]([C@@H](COC(C)=O)C2CCC3C4C[C@H]5O[C@]56CC=CC(=O)[C@]6(C)C4CC[C@@]32C)OC1=O (stereo not given in full) | 0.0393 µM (active) | 0.184 µM (active) | 0.269 µM (active) | 0.175 µM (active) | 0.134 µM (active) | 0.0204 µM (active) | 1.79 µM (inactive) | 0.188 µM (active) | 0.352 µM (active) | 0.573 µM (active) | 0.598 µM (active) | 0.138 µM (active) | 0.671 µM (active) | 0.353 µM (active) | 0.0191 µM (active) | 0.993 µM (active) | 0.302 µM (active) | 0.083 µM | 1.23 µM (inactive) | 0.379 µM (active)
11 | O=C(c1ccc(Cl)cc1)C1OC12C(=O)Nc1ccccc12 (stereo not given) | 2.4 µM (inactive) | 19.8 µM (inactive) | 12.1 µM (inactive) | 3.64 µM (inactive) | 1.91 µM (inactive) | 0.569 µM (active) | 25.1 µM (inactive) | 6.18 µM (inactive) | 10.8 µM (inactive) | 19.9 µM (inactive) | 20.3 µM (inactive) | 15.6 µM (inactive) | 6.71 µM (inactive) | 16.3 µM (inactive) | 0.388 µM (active) | 20.7 µM (inactive) | 13.8 µM (inactive) | 4.74 µM | 19.2 µM (inactive) | 16.8 µM (inactive)
12 | COc1cc2c(cc1O)C(c1cc(O)c(O)c(OC)c1)C(O)(C(=O)O)C(CO)C2O (stereo not given) | > 100 µM (inactive) | > 100 µM (inactive) | > 100 µM (inactive) | 16.6 µM (inactive) | > 100 µM (inactive) | 20.3 µM (inactive) | > 100 µM (inactive) | > 100 µM (inactive) | > 100 µM (inactive) | > 100 µM (inactive) | > 100 µM (inactive) | > 100 µM (inactive) | > 100 µM (inactive) | > 100 µM (inactive) | 2.62 µM (inactive) | > 100 µM (inactive) | > 100 µM (inactive) | > 100 µM | > 100 µM (inactive) | > 100 µM (inactive)
13 | Cc1cc(N(CCC#N)CCC#N)ccc1C(=N/NC(=O)c1cc(Cl)ccc1O)/N=N/c1cccc([N+](=O)[O-])c1 | 12.4 µM (inactive) | 11.3 µM (inactive) | 18.1 µM (inactive) | 37 µM (inactive) | 17.3 µM (inactive) | 6.03 µM (inactive) | 34 µM (inactive) | 30.4 µM (inactive) | 38.2 µM (inactive) | 28.8 µM (inactive) | 25.1 µM (inactive) | 23.1 µM (inactive) | 27 µM (inactive) | 19.4 µM (inactive) | 5.68 µM (inactive) | 27.2 µM (inactive) | 31.2 µM (inactive) | 25.5 µM | 35 µM (inactive) | 18.7 µM (inactive)
14 | Cc1cc(C)nc(NS(=O)(=O)c2ccc(NC(=O)c3ccc4nc5ccccc5c(Nc5ccc(S(=O)(=O)Nc6nc(C)cc(C)n6)cc5)c4c3)cc2)n1 | 37.2 µM (inactive) | 52.5 µM (inactive) | > 100 µM (inactive) | 91 µM (inactive) | 25.5 µM (inactive) | 28.5 µM (inactive) | 59.2 µM (inactive) | > 100 µM (inactive) | 23 µM (inactive) | 61.8 µM (inactive) | > 100 µM (inactive) | 30.3 µM (inactive) | > 100 µM (inactive) | 46.7 µM (inactive) | 36.6 µM (inactive) | > 100 µM (inactive) | > 100 µM (inactive) | > 100 µM | > 100 µM (inactive) | 58.6 µM (inactive)
